Experimental data from patent publication US6255324A, “Amino-and mercurio-substituted 4',5'-dihydropsoralens and therapeutical uses thereof” (priority 1998, dated 2001).
Where a name gives a salt, the structure may show the parent alone. Read-outs that look alike come from different tables or passages of the source.

Columns and labels:
[1] = system: PAM 212 keratinocytes; assay: PAM 212 keratinocyte growth inhibition (photo-toxicity with UVA / dark-toxicity without light); format: cell-based; conditions: UVA 320-400 nm, 1.28 J/cm2, growth 4-5 days
Method: Representative examples of the compounds described and claimed herein were tested in this assay for biological activity and found to be potent inhibitors of cell growth. Inhibition of cell growth was rapid, dependent on concentration, and required light activation. […] A description of this assay follows.
The photobiological activity was assayed using a keratinocyte cell line grown in a monolayer culture. In this assay, PAM 212 keratinocytes were grown in Dulbecco's Modified Eagle's medium supplemented with 10% newborn calf serum in a 5% carbon dioxide incubator. Cells were inoculated into 6-well Falcon plastic culture dishes at 25,000 cells per well. After 24 hours, the medium was charged to fresh growth medium supplemented with increasing concentrations of the test compounds or the control medium. Controls and test concentrations were analyzed in triplicate.
These plates were then incubated in a 37 degree C. carbon dioxide incubator. After 30 minutes culture plates were exposed to UVA light (UVA, 320-400 nm) emitted from a bank of four BLB fluorescent light tubes (F40 BL, Sylvania) placed approximately 10 cm above the cell culture plates. The incident light on the culture plates was 2.4 mW/cm^2 as measured with an International Light UV radiometer, Model IL 442A. The cells were exposed to 1.28 J/square centimeter of UVA.
After completion of the irradiation phase, the cell culture medium was drained, the cells refed with fresh growth medium and then re-incubated in the carbon dioxide incubator to allow for cell growth. After 4-5 days of growth the culture plates were removed from the incubator and the cell culture medium was drained. The cells were detached from the plates with trypsin and counted in a Coulter Counter. For control cells or for cells treated with test compounds, cell growth was determined as a percentage of control. […] This value is shown in Table I for a variety of phototherapeutics.

[2] = system: Chlorella vulgaris; assay: Algicidal assay, MIC against Chlorella in modified Allen's medium; format: cell-based; conditions: Table III, 14 days, 26 to 28° C, no unit in table (ppm)
Method: To assay the activity of the 5'-substituted-4',5'-dihydropsoralens of the invention against Chlorella, the Allen method (A. A. Allen, […], Journal of Phycology, 4, 1-4) was employed. […] The minimum inhibitory concentration (MIC) of the compounds tested against the fungus Aspergillus niger using an MSY broth is shown in Table II.
Test tubes containing modified Allen's medium were treated with increasing dosages of the compound to be tested and inoculated with a suspension of algal cells. After fourteen days of incubation, algal growth was rated as positive or negative. The minimum inhibitory concentration (MIC) of the compound is the smallest dosage showing negative algal growth.
The apparatus required consisted of sterilized test tubes, 18-150 mm and an incubator, capable of a constant (±2° C.) temperature within 26 to 28° C. The following procedure was used:
(1) Stock solutions (g/200 g deionized water each) were generated with: K2 HPO4, 1.50 g; MgSO4, 7H2 O, 1.50 g; Na2 CO3, 0.80 g; CaCl2 2H2 O, 0.50 g; Na2 SiO3 9H2 O, 1.16 g, and Citric acid, 1.20 g.
(3) The modified Allen's medium was prepared in a volumetric flask by the addition of 1.5 g NaNO3, 5.0 mL stock solution K2 HPO4, 5.0 mL stock solution MgSO4 -- 7H2 O, 5.0 mL Stock solution Na2 CO3, 10.0 mL stock solution CaCl2 2H2 O, 10.0 mL stock solution Na2 SiO3 9H2 O, 1.0 mL stock solution Citric acid and 1.0 mL stock solution PIV metal with enough deionized water to make 1000 mL of medium (Allen, 1968). The pH was adjusted to 7.8 and 5 mL of medium is added to each test tube. The tubes were sterilized in the autoclave for 20 minutes at 15 psi at 121° C. The test tubes were allowed to cool to 45-50° C. before adding the test compound and the inoculurn to the medium.
(4) The inoculum was a cell suspension from a 14-day-old culture of Chlorella vulgaris (UTEX 26, University of Texas) that was grown in modified Allen's medium.
The concentration of the stock solution in water or acetone of the compound to be tested is dependent on the largest dose required to be tested. Dilutions of the stock solution were made so that 100 μL of the stock solution of the corresponiding dilution was added per test tube. 100 μL of the solvent was added to the control to prepare the stock solution.
The inoculation consists of the addition of 100 μL of inoculurn per test tube.
The incubation of the control test tube and the test tubes containing compound and inoculum occurred in an incubator set between 26 to 28° C., with the temperature not varying more than ±2° C. Light was provided by plant growth fluorescent tubes and the test tubes were allowed to stand in the incubator for 14 days.
Rating of the test tubes containing different dosages of the compound will be positive or negative. […] If the medium in the rubes remains colorless, a negative (not contaminated) rating is given. The control is always positive. The minimum inhibitory concentration (MIC) of the compound is determined to be the smallest dosage showing negative algal growth.

[3] = system: PAM 212 keratinocytes; assay: PAM 212 keratinocyte growth inhibition (photo-toxicity with UVA / dark-toxicity without light); format: cell-based
[4] = system: Aspergillus niger; assay: Fungicidal assay, MIC against Aspergillus niger in MSY broth; format: cell-based; conditions: Table II, four days at 28° C, in the dark, no unit in table (ppm levels)
Method: The antifungal activities of compounds synthesized were measured by determining the inhibition of growth of Aspergillus niger in a standard liquid medium. The liquid growth medium is described as a solution of mineral salts and yeast extract (MSY). The MSY broth was prepared as described in ASTM G21-70, and amended with glucose (10 g/l) and yeast extract (1 g/l). An aliquot ([…]) of sterile medium was dispensed into each test well of a standard 96 well microplate (Corning No. 430247). Stock solutions of test compounds were prepared by dissolving the materials in 9:1 (v/v) solutions of acetone:methanol. Appropriate volumes of stock solutions were added to the test wells in order to achieve the desired ppm levels. Each test well (plus controls) was then inoculated with […] of a standardized suspension of Aspergillus niger. The cell suspension was prepared by suspending viable cells from a slant of potato dextrose agar into sterile, deionized water. The suspension was then adjusted to provide OD686 =0.28. This density contains approximately 2.5×10^7 CFU (colony forming units)/ml. The microplates were incubated in the dark for four days at 28° C. The optical density for each well at 686 nm was then recorded automatically using a SpectraMax 340 microplate reader (Molecular Devices Corp., Sunnyvale, Calif.). All wells were visually inspected in order to corroborate data from the instrument.
The antifungal activity was measured as minimum inhibitory concentrations or MIC of the 5'-substituted-4',5'-dihydropsoralens.

[5] = system: Mycobacterium tuberculosis H37Rv; assay: Antituberculosis primary in vitro screen, BACTEC 460; format: cell-based, Mycobacterium tuberculosis H37Rv ATCC 27294; conditions: Mycobacterium tuberculosis, H37RV; 12.5 μg/mL, 37° C; read-out: Anti-tubercular Activity (% inhibition)
[6] = Mus musculus, PAM212, light or radiation study

| Compound | IC50 [1] | IC50 [3] | IC50 [1, 6] | also measured |
| --- | --- | --- | --- | --- |
| 4,8-dimethyl-5'-trifluoroacetomercurimethyl-4',5'-dihydropsoralen [R = H, T = Hg-O-COCF3] | 4.2 µM | 7 µM | – | MIC [2]: 10; MIC [4]: 16 |
| Cc1c(Br)c(=O)oc2c(C)c3c(cc12)CC(CI)O3 (stereo not shown) [R = Br, T = I, 3-Bromo-4,8-dimethyl-5'-iodomethyl-4',5'-dihydropsoralen] | – | – | 0.48 µM | inhibition at 12.5 µg/mL [5]: 25% |
| Cc1c(Br)c(=O)oc2c(C)c3c(cc12)CC(CN1C(=O)c2ccccc2C1=O)O3 (stereo not shown) [R = Br, T = phthalimido] | – | – | 3.9 µM | – |
| Cc1c(Br)c(=O)oc2c(C)c3c(cc12)CC(C[n+]1ccccc1)O3 (stereo not shown) [R = Br, T = pyridinium iodide salt, 3-Bromo-4,8-dimethyl-5'-(N-pyridiniummethyl)-4',5'-dihydropsoralen Iodide Salt] | – | – | 1.6 µM | – |
| Cc1c(C#N)c(=O)oc2c(C)c3c(cc12)CC(CBr)O3 (stereo not shown) [R = CN, T = Br, 3-Cyano-4,8-dimethyl-5'-bromomethyl-4',5'-dihydropsoralen] | 6.4 µM | – | – | – |
| CC(=O)[O][Hg][CH2]C1Cc2cc3c(C)c(C#N)c(=O)oc3c(C)c2O1 (stereo not shown) [R = CN, T = HgOAc, 3-Cyano-4,8-dimethyl-5'-acetomercurimethyl-4',5'-dihydropsoralen] | 20 µM | 30 µM | – | – |
| Cc1c(C#N)c(=O)oc2c(C)c3c(cc12)CC(CI)O3 (stereo not shown) [R = CN, T = I, 3-Cyano-4,8-dimethyl-5'-iodomethyl-4',5'-dihydropsoralen] | – | – | 2.1 µM | – |
| Cc1c(C#N)c(=O)oc2c(C)c3c(cc12)CC(C[n+]1ccccc1)O3 (stereo not shown) [R = CN, T = pyridinium iodide salt, 3-Cyano-4,8-dimethyl-5'-(N-pyridiniummethyl)-4',5'-dihydropsoralen Iodide Salt] | – | – | 1000 µM | – |
| Cc1c(F)c(=O)oc2c(C)c3c(cc12)CC(CBr)O3 (stereo not shown) [R = F, T = Br, 3-Fluoro-4,8-dimethyl-5'-bromomethyl-4',5'-dihydropsoralen] | 4 µM | – | – | – |
| CC(=O)[O][Hg][CH2]C1Cc2cc3c(C)c(F)c(=O)oc3c(C)c2O1 (stereo not shown) [R = F, T = HgOAc, 3-Fluoro-4,8-dimethyl-5'-acetomercurimethyl-4',5'-dihydropsoralen] | 9.3 µM | 14 µM | – | – |
| Cc1c(F)c(=O)oc2c(C)c3c(cc12)CC(CI)O3 (stereo not shown) [R = F, T = I, 3-Fluoro-4,8-dimethyl-5'-iodomethyl-4',5'-dihydrofurocoumarin] | – | – | 62 µM | inhibition at 12.5 µg/mL [5]: 31% |
| Cc1cc(=O)oc2c(C)c3c(cc12)CC(CN1CC(C)OC(C)C1)O3 (stereo not shown) [R = H, T = 2,6-dimethylmorpholine, 4,8-Dimethyl-5'-(2,6-dimethylmorpholino)methyl-4',5'-dihydropsoralen] | – | – | 0.01 µM | – |
| Cc1cc(=O)oc2c(C)c3c(cc12)CC(C)O3 (stereo not shown) [R = H, T = H, reference compound] | – | – | 0.27 µM | – |
| Cc1cc(=O)oc2c(C)c3c(cc12)CC([CH2][Hg][Cl])O3 (stereo not shown) [R = H, T = HgCl, 4,8-Dimethyl-5'-chloromercurimethyl-4',5'-dihydropsoralen] | 6.1 µM | 15 µM | – | MIC [2]: 10; MIC [4]: < 8 |
| Cc1cc(=O)oc2c(C)c3c(cc12)CC([CH2][Hg][I])O3 (stereo not shown) [R = H, T = HgI, 4,8-Dimethyl-5'-iodomercurimethyl-4',5'-dihydropsoralen] | 1.3 µM | 4.2 µM | – | MIC [2]: 9; MIC [4]: < 8 |
| CC(=O)[O][Hg][CH2]C1Cc2cc3c(C)cc(=O)oc3c(C)c2O1 (stereo not shown) [R = H, T = HgOAc, 4,8-Dimethyl-5'-acetomercurimethyl-4',5'-dihydropsoralen] | 4.8 µM | 6.2 µM | – | MIC [2]: 10; MIC [4]: < 8 |
| Cc1cc(=O)oc2c(C)c3c(cc12)CC(CI)O3 (stereo not shown) [R = H, T = I, 4,8-Dimethyl-5'-iodomethyl-4',5'-dihydropsoralen] | – | – | 1.1 µM | inhibition at 12.5 µg/mL [5]: 24% |
| Cc1cc(=O)oc2c(C)c3c(cc12)CC(CN(CCO)CCO)O3 (stereo not drawn) [R = H, T = N(CH2 CH2 OH)2, 4,8-Dimethyl-5'-[N,N-β-(hydroxyethylamino)-methyl]-4',5'-dihydropsoralen] | – | – | 0.31 µM | – |
| Cc1cc(=O)oc2c(C)c3c(cc12)CC(CN(C)C)O3 (stereo not shown) [R = H, T = dimethyl amino iodide salt, 4,8-Dimethyl-5'-[(N,N-dimethylamino)methyl]-4',5'-dihydropsoralen Hydroiodide Salt] | – | – | 0.1 µM | inhibition at 12.5 µg/mL [5]: 4% |
| Cc1cc(=O)oc2c(C)c3c(cc12)CC(CN1CCOCC1)O3 (stereo not shown) [R = H, T = morpholino, 4,8-Dimethyl-5'-morpholinomethyl-4',5'-dihydropsoralen] | – | – | 3.2 µM | – |
| Cc1cc(=O)oc2c(C)c3c(cc12)CC(C[n+]1ccccc1)O3 (stereo not shown) [R = H, T = pyridinium iodide salt, 4,8-Dimethyl-5'-(N-pyridiniummethyl)-4',5'-dihydropsoralen Iodide Salt] | – | – | 0.37 µM | – |
| Cc1c(I)c(=O)oc2c(C)c3c(cc12)CC(CI)O3 (stereo not shown) [R = I, T = I, 3-Iodo-4,8-dimethyl-5'-iodomethyl-4',5'-dihydropsoralen] | – | – | 4.2 µM | inhibition at 12.5 µg/mL [5]: 17% |
| [Cl][Hg][CH2]C1Cc2ccccc2O1 (stereo not shown) [T = HgCl, 2-Chloromercurimethyl-2,3-dihydrobenzofuran] | 5.9 µM | 13 µM | – | MIC [2]: 10; MIC [4]: 24 |
| CC(=O)[O][Hg][CH2]C1Cc2ccccc2O1 (stereo not shown) [T = HgOAc, 2-Acetomercurimethyl-2,3-dihydrobenzofuran] | 6.1 µM | 11 µM | – | MIC [2]: 10; MIC [4]: 16 |
